We go through 12 compounds from patent publication US20230028658A1, “EXPANDED DOSAGE REGIMENS FOR INTEGRIN INHIBITORS” (Pliant Therapeutics, Inc., priority 2021, published 2023).

Test [1] concerns Type I Collagen gene Col1a1. Kind of test: Col1a1 expression in lung slices versus DMSO control slices (FIG. 5A, 5B, 6A, 6C). The format is cell-based. As to conditions: FIG. 6A; compared to the DMSO vehicle control slices.
Test [2] relates to lung Col1a1 expression. The experiment in a line: Precision cut lung slices, chronic bleomycin, comparison with nintedanib and pirfenidone (Example B10). Type of test: cell-based, Mice (C57BL/6). As to conditions: chronic bleomycin PCLS, 7 days culture, vs DMSO vehicle; FIG. 6A. How it is done: (§1) Mice (C57BL/6) were administered 3 U/kg of bleomycin (Teva Pharmaceuticals; North Wales, Pa.) on Day 0 and 1 U/kg of bleomycin on days 14, 28, 42 and 56 via oropharyngeal aspiration while under anesthesia. At day 70, 14 days following the final bleomycin insult, precision cut lung slices were obtained. Following euthanization, 2% low gelling temp agarose was injected into the mouse lungs via the trachea. […] The lobes were then subjected to precision slicing to obtain samples for culture using a microtome (Compresstome VF-300-0Z, Precisionary; Greenville, N.C.). Individual slices were distributed in a multiwell culture plate and cultured for 7 days under control (DMSO) and test compound conditions. The viability of the slices over the course of culturing was confirmed by WST-1 assay of mitochondrial activity.
During the culture period, slices in the control group were treated with DMSO and slices in the test group were treated with a DMSO solution of one of: compound 5; nintedanib; pirfenidone; a combination of nintedanib and compound 5; a combination of pirfenidone and compound 5; or the small molecule ALK5 inhibitor. Compound 5 was […] effective to equal or exceed its respective IC50 values at αvβ6 and αvβ1. […] Nintendanib and pirfenidone were analyzed at concentrations 10× their reported therapeutic concentrations.

In test [3] the test system is COL1A1 expression. The experiment in a line: PCLS from IPF lung tissue, seven days, COL1A1 expression. The format is cell-based, human. As to conditions: PCLS from 5-7 IPF lung tissue samples, Compound 5 200 nM, nintedanib 75 nM, pirfenidone 50 μm, FIG. 6D. How it is done: PCLS from 5-7 idopathic pulmonary fibrosis (IPF) lung tissue samples were cultured for seven days with one of: DMSO; Compound 5 at 200 nM; nintedanib at 75 nM; pirfenidone at 50 μm; a combination of Compound 5 at 200 nM and nintedanib at 75 nM; a combination of Compound 5 at 200 nM and pirfenidone at 50 μm; or an Alk5 inhibitor at 1 μm. […] FIG. 6D is a bar graph showing relative expression of COL1A1 in precision cut lung slices (PCLS) from idopathic pulmonary fibrosis (IPF) lung tissue upon exposure to Compound 5, clinical standard of care compounds nintedanib (Nin) and pirfenidone (Pirf), and an ALK5 inhibitor, all versus DMSO control.
PCLS from a single IPF lung tissue sample were cultured for seven days with Compound 5 at concentrations of 200 pM, 2 nM, 60 nM, 200 nM, and 1 μM, along with 0.1% DMSO control and an Alk5 inhibitor at 1 μM. […] COL1A1 expression is also graphed for the PCLS in the presence of 0.1% DMSO control, and an Alk5 inhibitor at 1 μM.

Test [4] deals with Type I Collagen gene Col1a1 expression. Kind of test: Precision cut lung slices of mice under acute bleomycin exposure, Col1a1 expression. The format is cell-based, Mice (C57BL/6). As to conditions: acute bleomycin PCLS, 3 days culture, normalized to DMSO; FIG. 5A. How it is done:
Mice (C57BL/6) were administered 3 U/kg of bleomycin (Teva Pharmaceuticals; North Wales, Pa.) on day 0 via oropharyngeal aspiration while under anesthesia. On day 14, precision cut lung slices were obtained. Following euthanization, 2% low gelling temp agarose was injected into the mouse lungs via the trachea. […] The lobes were then subjected to precision slicing to obtain samples for culture using a microtome (Compresstome VF-300-0Z, Precisionary; Greenville, N.C.). Individual slices were distributed in a multiwell culture plate and cultured for 3 days under control (DMSO) and test compound conditions.

Test [5] has as its target recombinant human integrin αvβ6 (Homo sapiens, UniProt P06756+P18564). The experiment in a line: Solid phase integrin αvβ6 binding assay. As to conditions: read-out: αvβ6 Inhibition IC50 (nM) - range. How it is done:
Microplates were coated with recombinant human integrin αvβ6 (2 μg/mL) in PBS (100 μL/well 25° C., overnight). The coating solution was removed, washed with wash buffer (0.05% Tween 20; 0.5 mM MnCl2; in 1×TBS). The plate was blocked with 200 μL/well of Block Buffer (1% BSA; 5% sucrose; 0.5 mM MnCl2; in 1×TBS) at 37° C. for 2 h. Dilutions of testing compounds and recombinant TGFβ1 LAP (0.67 μg/mL) in binding buffer (0.05% BSA; 2.5% sucrose; 0.5 mM MnCl2; in 1×TBS) were added. The plate was incubated for 2 hours at 25° C., washed, and incubated for 1 hour with Biotin-Anti-hLAP. Bound antibody was detected by peroxidase-conjugated streptavidin. The IC50 values for testing compounds were calculated by a four-parameter logistic regression.
The compounds tested were compound samples prepared according to procedures described in the Synthetic Examples section, with the stereochemical purity as indicated in the Examples.

The test system of test [6] is lung Col1a1 expression. Kind of test: Precision cut lung slices of mice under chronic bleomycin exposure, Col1a1 expression (Example B9). The format is cell-based, Mice (C57BL/6). As to conditions: chronic bleomycin PCLS, 7 days culture, normalized to DMSO; FIG. 5B. How it is done: as §1, with “after” for “following”
During the culture period, slices in the control group were treated with DMSO and slices in the test group were treated with a DMSO solution of one of: the selective antibody αvβ6 inhibitor 3G9; the αvβ1-selective small molecule inhibitor; a combination of the selective antibody αvβ6 inhibitor 3G9 and the αvβ1-selective small molecule inhibitor; compound 5; and the small molecule ALK5 inhibitor. The selective αvβ1 and αvβ6 integrin inhibitors were analyzed at ≥their respective IC90 concentrations for inhibition of TGF-beta activation. […]

For test [7], the system named is lung Col1a1 expression. The experiment in a line: Precision cut lung slices from human IPF explants, 3 days, Col1a1 expression. Type of test: cell-based. As to conditions: human IPF PCLS, 3G9 ≥400 ng/mL, compound 5 179 nM, ALK5 inhibitor 1 μM, FIG. 6C. From the text:
Explanted lung tissue was obtained from human IPF subjects and inflated with agarose as described in the preceding examples. Biopsy cores were obtained from the agarose-inflated lung tissue. The biopsy cores were subjected to precision slicing to obtain several hundred μm thick. Individual slices were distributed in a multiwell culture plate and cultured for […] under control (DMSO) and test compound conditions. The viability of the slices over the course of culturing was confirmed by WST-1 assay of mitochondrial activity.

As usually defined, the IC50 is the point on the concentration scale where inhibition reaches its midpoint.

Chain of recombinant human integrin αvβ6 (P06756 31-992 limits assumed): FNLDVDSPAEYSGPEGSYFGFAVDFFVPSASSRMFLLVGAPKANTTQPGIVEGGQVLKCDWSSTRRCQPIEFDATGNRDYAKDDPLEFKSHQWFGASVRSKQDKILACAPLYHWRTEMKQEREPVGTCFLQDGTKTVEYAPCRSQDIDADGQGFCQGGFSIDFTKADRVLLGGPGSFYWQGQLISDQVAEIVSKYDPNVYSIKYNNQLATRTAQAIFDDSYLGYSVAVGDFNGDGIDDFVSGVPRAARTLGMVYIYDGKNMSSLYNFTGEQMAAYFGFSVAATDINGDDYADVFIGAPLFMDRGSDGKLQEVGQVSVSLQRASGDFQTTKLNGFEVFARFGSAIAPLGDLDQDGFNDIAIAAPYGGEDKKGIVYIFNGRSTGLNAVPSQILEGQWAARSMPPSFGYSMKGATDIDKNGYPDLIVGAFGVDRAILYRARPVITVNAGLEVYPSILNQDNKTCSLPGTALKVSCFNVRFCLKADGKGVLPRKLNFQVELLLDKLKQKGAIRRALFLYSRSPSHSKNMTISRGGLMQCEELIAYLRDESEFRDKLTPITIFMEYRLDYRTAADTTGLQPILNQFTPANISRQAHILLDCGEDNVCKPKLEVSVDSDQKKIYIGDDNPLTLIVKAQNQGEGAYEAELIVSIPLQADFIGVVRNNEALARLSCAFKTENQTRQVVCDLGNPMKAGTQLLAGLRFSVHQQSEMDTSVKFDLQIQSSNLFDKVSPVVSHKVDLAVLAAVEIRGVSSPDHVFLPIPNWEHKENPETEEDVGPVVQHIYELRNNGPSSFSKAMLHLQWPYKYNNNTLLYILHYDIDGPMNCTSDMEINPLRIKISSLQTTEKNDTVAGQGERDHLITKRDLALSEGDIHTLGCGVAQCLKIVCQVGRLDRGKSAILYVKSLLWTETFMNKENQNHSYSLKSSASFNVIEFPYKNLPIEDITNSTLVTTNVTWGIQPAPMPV
Chain of recombinant human integrin αvβ6 (P18564 22-707 limits assumed): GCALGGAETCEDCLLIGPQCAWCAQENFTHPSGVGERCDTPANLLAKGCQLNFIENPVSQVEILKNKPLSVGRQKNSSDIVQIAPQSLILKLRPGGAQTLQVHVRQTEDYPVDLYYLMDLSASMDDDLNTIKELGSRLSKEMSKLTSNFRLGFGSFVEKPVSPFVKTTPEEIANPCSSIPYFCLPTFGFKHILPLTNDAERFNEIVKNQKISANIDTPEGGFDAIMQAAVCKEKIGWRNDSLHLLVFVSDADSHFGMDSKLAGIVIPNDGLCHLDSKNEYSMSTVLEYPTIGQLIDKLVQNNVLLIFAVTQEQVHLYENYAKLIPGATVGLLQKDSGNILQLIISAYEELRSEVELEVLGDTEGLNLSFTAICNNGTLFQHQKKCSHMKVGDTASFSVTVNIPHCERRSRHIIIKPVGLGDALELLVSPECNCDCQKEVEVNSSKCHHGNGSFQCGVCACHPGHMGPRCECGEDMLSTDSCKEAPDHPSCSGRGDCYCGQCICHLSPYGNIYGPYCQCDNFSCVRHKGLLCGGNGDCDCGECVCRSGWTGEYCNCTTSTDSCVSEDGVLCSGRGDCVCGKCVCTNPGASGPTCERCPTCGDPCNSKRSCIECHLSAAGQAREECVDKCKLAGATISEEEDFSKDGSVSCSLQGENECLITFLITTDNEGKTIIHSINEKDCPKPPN

Turning to `Cc1ccc(=O)n(-c2ccccc2)c1` [pirfenidone], the “lung Col1a1 expression” value in test [1] is reported as “slight increase”. The “lung slice Col1a1 expression” value in test [2] is given as “slight increase”. In test [3], the “reduced COL1A1 expression” value is “did not significantly reduce”.

For the compound `COC(=O)c1ccc2c(c1)NC(=O)/C2=C(\Nc1ccc(N(C)C(=O)CN2CCN(C)CC2)cc1)c1ccccc1` [nintedanib], the “lung Col1a1 expression” value in test [1] was “slight increase”. Further, the “lung slice Col1a1 expression” value in test [2] was “slight increase”. In test [3], the “reduced COL1A1 expression” value was “did not significantly reduce”.

Turning to `CC(C)(C)c1cc(Br)cc(C(CC(=O)O)NC(=O)CNC(=O)c2cc(O)cc(NC3=NCC(O)CN3)c2)c1` [second pan-αv small molecule inhibitor, (3S)-N-[3-hydroxy-5-[(1,4,5,6-tetrahydro-5-hydroxy-2-pyrimidinyl)amino]benzoyl]glycyl-3-[3-bromo-5-(1,1-dimethylethyl)phenyl]-3-alanine], in test [4], the “Type I Collagen gene Col1a1 expression” value is “reduced Type I Collagen gene Col1a1 expression”.

Consider `COCCN(CCCCc1ccc2c(n1)NCCC2)CC[C@H](Nc1ccnc2ccccc12)C(=O)O` [Compound 36, (S)-4-((2-methoxyethyl) (4-(5,6,7,8-tetrahydro-1,8-naphthyridin-2-yl)butyl)amino)-2-(quinolin-4-ylamino) butanoic acid], for which the concentration for half-maximal inhibition (IC50) in test [5] is more than 1000 nM.

As for `CS(=O)(=O)CCN(CCCCc1ccc2c(n1)NCCC2)CC[C@H](Nc1ncnc2ccccc12)C(=O)O` [Compound 27, (S)-4-((2-(methylsulfonyl)ethyl) (4-(5,6,7,8-tetrahydro-1,8-naphthyridin-2-yl)butyl)amino)-2-(quinazolin-4-ylamino) butanoic acid], the concentration for half-maximal inhibition (IC50) in test [5] is less than 50 nM.

Take `O=C(O)[C@H](CCN(CCO)CCCCc1ccc2c(n1)NCCC2)Nc1ncnc2ccccc12` [Compound 75, (S)-4-((2-hydroxyethyl) (4-(5,6,7,8-tetrahydro-1,8-naphthyridin-2-yl)butyl)amino)-2-(quinazolin-4-ylamino) butanoic acid]: the IC50 in test [5] is less than 50 nM.

Consider `COCCN(CCCCc1ccc2c(n1)NCCC2)CC[C@H](Nc1ncnc2cc(F)ccc12)C(=O)O` [Compound 7, (S)-2-((7-fluoroquinazolin-4-yl)amino)-4-((2-methoxyethyl) (4-(5,6,7,8-tetrahydro-1,8-naphthyridin-2-yl)butyl)amino) butanoic acid], for which, in test [5], the concentration for half-maximal inhibition (IC50) is less than 50 nM.

Turning to `CO[C@H](C)CN(CCCCc1ccc2c(n1)NCCC2)CC[C@H](Nc1ncncc1-c1ccccc1)C(=O)O` [Compound 81, (S)-4-(((R)-2-methoxypropyl) (4-(5,6,7,8-tetrahydro-1,8-naphthyridin-2-yl)butyl)amino)-2-((5-phenylpyrimidin-4-yl)amino) butanoic acid], in test [5], the IC50 was less than 50 nM.

Take `Cc1cccc(-c2n[nH]cc2-c2ccc(F)c(-c3cnn(CCO)c3)c2)n1` [small molecule ALK5 inhibitor, 4-[2-Fluoro-5-[3-(6-methyl-2-pyridinyl)-1H-pyrazol-4-yl]phenyl]-1H-pyrazole-1-ethanol, reference compound]: the “lung Col1a1 expression” value in test [6] is reported as “greatest decrease”; in test [7] it was “substantial, statistically significant”. Also, the “Type I Collagen gene Col1a1 expression” value in test [4] is reported as “greatest decrease”. For the same compound, the “lung slice Col1a1 expression” value in test [2] is given as “substantial, statistically significant (p<0.0001 vs vehicle) decrease”.

For `CO[C@H](C)CN(CCCCc1ccc2c(n1)NCCC2)CC[C@H](Nc1ncc(C2CC2)cn1)C(=O)O` [Compound 124, (S)-2-((5-cyclopropylpyrimidin-2-yl)amino)-4-(((R)-2-methoxypropyl) (4-(5,6,7,8-tetrahydro-1,8-naphthyridin-2-yl)butyl)amino) butanoic acid], the IC50 in test [5] is less than 50 nM.

With `O=C(O)[C@H](CCN(CCCCc1ccc2c(n1)NCCC2)CCC(F)F)Nc1ncc(C2CC2)cn1` [Compound 135, (S)-2-((5-cyclopropylpyrimidin-2-yl)amino)-4-((3,3-difluoropropyl) (4-(5,6,7,8-tetrahydro-1,8-naphthyridin-2-yl)butyl)amino) butanoic acid], the IC50 in test [5] was 50 to 250 nM.

Turning to `CO[C@H](C)CN(CCCCc1ccc2c(n1)NCCC2)CC[C@H](Nc1ncnc2ccccc12)C(=O)O` [Compound 62, (S)-4-(((R)-2-methoxypropyl) (4-(5,6,7,8-tetrahydro-1,8-naphthyridin-2-yl)butyl)amino)-2-(quinazolin-4-ylamino) butanoic acid], the IC50 in test [5] was less than 50 nM.
